According to US12371454B2, “Cyclic peptide compound having Kras inhibitory action” (priority 2019, dated 2025):
Starred links: 1 amine or outer side, 2 acyl side, 3 side chain; linkers in the order of their positions; H or OH if unused. Positions of bridges follow the written chain, without caps; N, C: chain ends. Non-standard residues stand in square brackets, D forms with d. Residues, ends and D or L forms follow the SMILES beside them. *: point of attachment. hPhe(3-Cl-4-CF3) = N[C@@H](CCc1ccc(C(F)(F)F)c(Cl)c1)C(=O)O; NMePhe(4-CF3) = CN[C@@H](Cc1ccc(C(F)(F)F)cc1)C(=O)O; X50 = O=C([C@H](Cc1cc(F)cc(Br)c1)N[*:1])[*:2]; 3Oxa8azabicyclo(3.2.1)octane = C1CC2COCC1N2*; NMePhe(4-Cl) = CN[C@@H](Cc1ccc(Cl)cc1)C(=O)O; NMePhe(4-Me) = CN[C@@H](Cc1ccc(C)cc1)C(=O)O; NMedβ3hAla = C[C@H](CC(=O)[*:2])N(C)[*:1]; X31 = O=C([C@H](Cc1ccc(Cl)s1)N[*:1])[*:2]; Phe(3-I) = N[C@@H](Cc1cccc(I)c1)C(=O)O; NMeAla(cPr) = CN[C@@H](CC1CC1)C(=O)O; NMeY = CN[C@@H](Cc1ccc(O)cc1)C(=O)O; NMeCha = CN[C@@H](CC1CCCCC1)C(=O)O; NMeChg = CN[C@H](C(=O)O)C1CCCCC1; NMeI = CC[C@H](C)[C@H](NC)C(=O)O; NMeD = CN[C@@H](CC(=O)O)C(=O)O; NMeL = CN[C@@H](CC(C)C)C(=O)O; NMeNva = CCC[C@H](NC)C(=O)O; NMeV = CN[C@H](C(=O)O)C(C)C; NMeAbu = CC[C@H](NC)C(=O)O; NMeA = CN[C@@H](C)C(=O)O; NMeAib = CNC(C)(C)C(=O)O; Nle = CCCC[C@H](N)C(=O)O; Piperidide = C1CCN(*)CC1; dNMeA = CN[C@H](C)C(=O)O; Ac5c = NC1(C(=O)O)CCCC1; Aze = O=C(O)[C@@H]1CCN1; Sar = CNCC(=O)O

biological target: T1, Kras and SOS1 (biotin-tagged human Kras loaded with GDP, His-tagged human SOS1) (Homo sapiens, UniProt P01116, G12D); assay: Protein-protein interaction inhibition between Kras and SOS1 (KrasGl2D-SOS PPI) using AlphaScreen; assay type: binding; details: AlphaScreen; biotin-tagged human Kras loaded with GDP, His-tagged human SOS1; read-out: KRAS G12D-SOS PPI IC50
T1 construct: made in house; host or cells: E. coli (stated for Kras only)
T1 sequence (P01116 1-188 isoform P01116-2 G12D): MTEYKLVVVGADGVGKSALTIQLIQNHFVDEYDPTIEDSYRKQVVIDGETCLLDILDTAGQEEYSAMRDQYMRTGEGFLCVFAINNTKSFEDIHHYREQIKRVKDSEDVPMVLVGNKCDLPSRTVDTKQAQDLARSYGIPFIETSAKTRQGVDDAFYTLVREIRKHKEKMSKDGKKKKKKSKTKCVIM
Method in brief: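 AlphaScreen format: Ni donor beads capture His-SOS1, streptavidin acceptor beads capture biotinylated Kras (E. coli-expressed, GDP-loaded post-purification). Excite 680 nm, read 520-620 nm.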

First: CC[C@H](C)[C@@H]1NC(=O)[C@H](CC(C)C)N(C)C(=O)C[C@@H](C(=O)N2CCCCC2)N(C)C(=O)[C@H](C(C)C)N(C)C(=O)C2(CCCC2)NC(=O)[C@@H]2CCCN2C(=O)[C@H](CCc2ccc(C(F)(F)F)c(Cl)c2)NC(=O)CN(C)C(=O)[C@H](CC2CCCCC2)N(C)C(=O)[C@@H]2CCN2C(=O)[C@H](CC2CC2)N(C)C1=O [Compound 1642] ([NMeL]I[NMeAla(cPr)][Aze][NMeCha][Sar][hPhe(3-Cl-4-CF3)]P[Ac5c][NMeV][NMeD]-Piperidide; lactam N-11)
Second: CC[C@H](C)[C@@H]1NC(=O)[C@H](C)N(C)C(=O)C[C@@H](C(=O)N2CCCCC2)N(C)C(=O)[C@H](C(C)C)N(C)C(=O)C2(CCCC2)NC(=O)[C@@H]2CCCN2C(=O)[C@H](CCc2ccc(C(F)(F)F)c(Cl)c2)NC(=O)CN(C)C(=O)[C@H](CC2CCCCC2)N(C)C(=O)[C@@H]2CCN2C(=O)[C@H](C2CCCCC2)N(C)C1=O [Compound 1622] ([NMeA]I[NMeChg][Aze][NMeCha][Sar][hPhe(3-Cl-4-CF3)]P[Ac5c][NMeV][NMeD]-Piperidide; lactam N-11)
The IC50 of the first is 2.2-fold lower: 58 nM for the first, 130 nM for the second.

`CC[C@H](C)[C@@H]1NC(=O)[C@H](CC(C)C)N(C)C(=O)C[C@@H](C)N(C)C(=O)[C@H](CC(C)C)NC(=O)C(C)(C)N(C)C(=O)[C@H](CC(C)C)NC(=O)[C@H](CCc2ccc(C(F)(F)F)c(Cl)c2)NC(=O)[C@@H](C)N(C)C(=O)[C@H](Cc2ccc(C)cc2)N(C)C(=O)[C@@H]2CCN2C(=O)CN(C)C1=O` [Compound 1394] (cyclo([Aze][NMePhe(4-Me)][dNMeA][hPhe(3-Cl-4-CF3)]L[NMeAib]L[NMedβ3hAla][NMeL]I[Sar])) and `CC[C@H](C)[C@@H]1NC(=O)[C@H](C)N(C)C(=O)C[C@@H](C)N(C)C(=O)[C@H](CC(C)C)NC(=O)C(C)(C)N(C)C(=O)[C@H](CC(C)C)NC(=O)[C@H](CCc2ccc(C(F)(F)F)c(Cl)c2)NC(=O)[C@@H](C)N(C)C(=O)[C@H](Cc2ccc(C(F)(F)F)cc2)N(C)C(=O)[C@@H]2CCN2C(=O)CN(C)C1=O` [Compound 1383] (cyclo([Aze][NMePhe(4-CF3)][dNMeA][hPhe(3-Cl-4-CF3)]L[NMeAib]L[NMedβ3hAla][NMeA]I[Sar])) are the same in IC50: 130 nM for the first, 130 nM for the second.

Going from `CCC[C@H]1C(=O)NC2(CCCC2)C(=O)N(C)[C@@H](C2CCCCC2)C(=O)N(C)[C@H](C(=O)N2CCCCC2)CC(=O)N(C)[C@@H](CC(C)C)C(=O)N[C@@H]([C@@H](C)CC)C(=O)N(C)[C@@H](C)C(=O)N2CC[C@H]2C(=O)N(C)[C@@H](CC2CCCCC2)C(=O)N(C)CC(=O)N[C@@H](CCc2ccc(C(F)(F)F)c(Cl)c2)C(=O)N1C` [Compound 1113] ([NMeL]I[NMeA][Aze][NMeCha][Sar][hPhe(3-Cl-4-CF3)][NMeNva][Ac5c][NMeChg][NMeD]-Piperidide; lactam N-11) to `CC[C@H](C)[C@@H]1NC(=O)[C@H](CC(C)C)N(C)C(=O)C[C@@H](C(=O)N2C3CCC2COC3)NC(=O)[C@H]([C@@H](C)CC)N(C)C(=O)C2(CCCC2)NC(=O)[C@@H]2CCCN2C(=O)[C@H](CCc2ccc(C(F)(F)F)c(Cl)c2)NC(=O)CN(C)C(=O)[C@H](CC2CCCCC2)N(C)C(=O)CN(C)C(=O)CN(C)C1=O` [Compound 1257] ([NMeL]I[Sar][Sar][NMeCha][Sar][hPhe(3-Cl-4-CF3)]P[Ac5c][NMeI]D-{3Oxa8azabicyclo(3.2.1)octane}; lactam N-11), the IC50 falls from 410 nM to 6.5 nM (63-fold).

First: CCCC[C@@H]1NC(=O)[C@H](Cc2ccc(Cl)s2)NC(=O)CN(C)C(=O)[C@H](Cc2ccc(Cl)cc2)N(C)C(=O)CN(C)C(=O)CN(C)C(=O)[C@H]([C@@H](C)CC)NC(=O)[C@H](CC(C)C)N(C)C(=O)C[C@@H](C(=O)N2CCCCC2)N(C)C(=O)[C@H](CC(C)C)NC(=O)C(C)(C)N(C)C1=O [Compound 1318] ([NMeL]I[Sar][Sar][NMePhe(4-Cl)][Sar][X31][Nle][NMeAib]L[NMeD]-Piperidide; lactam N-11)
Second: CCCC[C@@H]1NC(=O)[C@H](Cc2cccc(I)c2)NC(=O)CN(C)C(=O)[C@H](Cc2ccc(Cl)cc2)N(C)C(=O)CN(C)C(=O)CN(C)C(=O)[C@H]([C@@H](C)CC)NC(=O)[C@H](CC(C)C)N(C)C(=O)C[C@@H](C(=O)N2CCCCC2)N(C)C(=O)[C@H](CC(C)C)NC(=O)[C@H](Cc2ccc(C(F)(F)F)cc2)N(C)C1=O [Compound 498] ([NMeL]I[Sar][Sar][NMePhe(4-Cl)][Sar][Phe(3-I)][Nle][NMePhe(4-CF3)]L[NMeD]-Piperidide; lactam N-11)
The IC50 of the first is 1.6-fold higher: 78 nM for the first, 49 nM for the second.

`CCCC[C@@H]1NC(=O)[C@H](Cc2cc(F)cc(Br)c2)NC(=O)CN(C)C(=O)[C@H](Cc2ccc(OC)cc2)N(C)C(=O)[C@@H]2CCN2C(=O)[C@H](C)N(C)C(=O)[C@H]([C@@H](C)CC)NC(=O)[C@H](CC)N(C)C(=O)C[C@@H](C(=O)N2CCCCC2)N(C)C(=O)[C@H](CC(C)C)NC(=O)C(C)(C)N(C)C1=O` [Compound 1372] ([NMeAbu]I[NMeA][Aze][NMeY](Me)[Sar][X50][Nle][NMeAib]L[NMeD]-Piperidide; lactam N-11) showed an IC50 of 17 nM.
